# Test results as given in PMC11033495 (Pharmacology Research & Perspectives, 2024).
# Read-outs that look alike come from different tables or passages of the source.
# Key:
# CYP3A4 [1] = assay: Plasma 4β-OH cholesterol as biomarker of CYP3A4 activity in mice fed ND or HCD; format: in vivo; settings: hCYP3A mice
# CYP3A4 [2] = format: in vivo; settings: oral TRZ 1 mg/kg; hCYP3A mice fed HCD versus ND
# [3] = format: in vivo, hCYP3A mice; settings: mean ± SD, n = 4
# CYP3A4 [4] = assay: In vivo DDI study: KCZ pretreatment before oral TRZ in mice fed ND or HCD; parameters: species or system hCYP3A mice; settings: for Percentage of decline in AUCRα-OH: 40 mg/kg KCZ oral 15 min before oral TRZ 1 mg/kg, versus vehicle
# CYP3A4 [5] = assay: Inhibition of TRZ hydroxylation by KCZ in pooled liver microsomes; format: biochemical, hCYP3A mice; settings: 0.01, 0.1 and 1 μM KCZ; pooled liver microsomes of ND and HCD mice
# [6] = hCYP3A mice fed CA-diet (CE-2 + 0.5% CA) for 1 week
# [7] = hCYP3A mice fed ND (CE-2) for 1 week
# [8] = both ND and HCD mice, 40 mg/kg KCZ oral, TRZ 1 mg/kg oral
smiles,measurement,setting,value
"CC(C)CCC[C@@H](C)[C@H]1CC[C@H]2[C@@H]3CC=C4[C@@H](O)[C@@H](O)CC[C@]4(C)[C@H]3CC[C@]12C [4β‐OH cholesterol, 4β‐Hydroxy (4β‐OH) cholesterol]","Plasma concentration ratio (4β-OH cholesterol/cholesterol), HCD versus ND",CYP3A4 [1],not significantly different
same,Plasma level in mice fed HCD compared with mice fed ND,CYP3A4 [1]; HCD versus ND,significantly higher
same,Increase of plasma level by HCD,"CYP3A4 [1]; HCD versus ND, Figure S4A",about twofold
"Cc1nnc2n1-c1ccc(Cl)cc1C(c1ccccc1Cl)=NC2O (stereo not drawn) [4‐OH TRZ, 4‐hydroxy triazolam]",Plasma concentrations and AUC values in HCD mice compared with ND mice,CYP3A4 [2],lower
"C[C@H](CCC(=O)O)[C@H]1CC[C@H]2[C@@H]3[C@H](O)C[C@@H]4C[C@H](O)CC[C@]4(C)[C@H]3C[C@H](O)[C@]12C [CA, cholic acid]",Plasma concentration,[3]; [6],1.35 ± 1.869 µg/mL
same,Plasma concentration,[3]; [7],0.312 ± 0.243 µg/mL
"CC(C)CCC[C@@H](C)[C@H]1CC[C@H]2[C@@H]3CC=C4C[C@@H](O)CC[C@]4(C)[C@H]3CC[C@]12C [Cholesterol, cholesterol]",Plasma concentration,[3]; [6],2250 ± 336 µg/mL
same,Plasma concentration,[3]; [7],1361 ± 152 µg/mL
"CC(=O)N1CCN(c2ccc(OCC3COC(Cn4ccnc4)(c4ccc(Cl)cc4Cl)O3)cc2)CC1 (stereo not drawn) [KCZ, ketoconazole]",Percentage of decline in AUCRα-OH,CYP3A4 [4]; HCD mice,46%
same,Percentage of decline in AUCRα-OH,CYP3A4 [4]; ND mice,49%
same,Effect of pretreatment on plasma concentrations of TRZ,CYP3A4 [4]; [8],tended to increase
same,Effect of pretreatment on plasma concentrations of α-OH TRZ,CYP3A4 [4]; [8],decrease
same,Effect on microsomal activity of TRZ hydroxylation in liver,CYP3A4 [5],inhibited
"Cc1nnc2n1-c1ccc(Cl)cc1C(c1ccccc1Cl)=NC2 [TRZ, triazolam, reference compound]",Plasma concentrations and AUC values in HCD mice compared with ND mice,CYP3A4 [2],lower
"OCc1nnc2n1-c1ccc(Cl)cc1C(c1ccccc1Cl)=NC2 [α‐OH TRZ, α‐hydroxy triazolam]",Plasma concentrations and AUC values in HCD mice compared with ND mice,CYP3A4 [2],lower
